Data reported in patent publication US6472227B1, “Barbiturate assay, tracers, immunogens, antibodies and kit” (Abbott Laboratories, priority 1986, dated 2002).

Experiments:
[1] = Tracer stability: polarization after storage in buffer or boric acid (Table 1); format: physicochemical; set-up: Polarization (Buffer): unit not given beside the values
Excerpt: It was unexpectedly discovered that the presence of a carbon-carbon double bond between the fluorescein moiety and the barbiturate ring portions of the novel tracers of the present invention advantageously orients the tracer for optimal interaction with the antibody.

[2] = tested on: antibodies raised against an immunogen having the structure shown in FIG. 28; assay: Fluorescence polarization immunoassay cross-reactivity in drug-free normal human urine, tracer of FIG. 5; format: binding, sheep; details: for amount of the test compound found in the resulting human urine: 200 ng/mL added to drug-free urine, secobarbital standard
Description: (§1) The antibodies of the present invention are prepared by eliciting a response in sheep to the immunogens described supra. The immunogen is administered to animals or to in vitro cultures of immunocompetent cells by a series of innoculations, in a manner well known to those skilled in the art.
(§2) The tracer formulation presently preferred is 150 nanomolar tracer in: 0.1 molar phosphate buffer at pH 6.2; 5% sodium 5-sulfosalicylate; 0.1% sodium azide; and 0.01% bovine gamma-globulin. The antiserum formulation comprises sheep serum diluted with: 0.1 molar tris buffer at pH 7.5; 0.1% sodium azide; 0.1% bovine gamma-globulin; and 2% ethylene glycol (volume/volume). The dilution buffer comprises: 0.1 molar sodium phosphate at pH 7.5; 0.1% sodium azide; and 0.01% bovine gamma-globulin. The pretreatment solution comprises: 0.01% bovine gamma-globulin; 0.1 molar tris buffer at pH 7.5; 0.1% sodium azide; and 10 mg/mL riboflavin binding protein.
(§3) A minimum of fifty microliters of urine is required. The calibrators, controls, or unknown samples are pipetted directly into the sample well of the TDx® or ADx® sample cartridge. […] The assay procedure from this point is fully automated.
(§4) If a manual assay is being performed, then the sample is mixed with the pretreatment solution in dilution buffer and a background reading is taken. The tracer and antibody are then mixed into the test solution. After incubation, a fluorescence polarization reading is taken.
(§5) The net fluorescence polarization value of each calibrator, control or sample is determined and is printed on the output tape of an instrument such as the Abbott TDx® Analyzer. […] The concentration of each control or sample is read off the stored calibration curve and printed on the output tape.
Cross-reactivity was tested by the method of the present invention for the commonly-used barbiturates. […]
The five columns indicate the following information:
In other words, when 200 ng of secobarbital were added to drug-free normal human urine, approximately 200 ng of secobarbital were detected in the resulting urine sample. Thus, the closer the factor is to 1.0, the more accurate the assay is with respect to the particular test compound analyzed.
The percent cross-reactivity value presented in column five was obtained by the following mathematical formula: [formula]
(§6) The five columns in Tables 4(a) and 4(b) indicate the same information as is described above for Table 3(a).

[3] = tested on: antibodies raised against an immunogen having the structure shown in FIG. 29; assay: Fluorescence polarization immunoassay cross-reactivity in drug-free normal human urine, tracer of FIG. 30; format: binding, sheep; details: for amount of the test compound found in the resulting human urine: 200 ng/mL added to drug-free urine, secobarbital standard; for % CR / Conc. Found: tracer FIG. 30
Description: as §1, §2, §3, §4, §5
Cross-reactivity was tested by the method of the present invention for the commonly-used barbiturates. In each case, compounds were assayed on the Abbott Laboratories+ TDx® Clinical Analyzer or the ADx® Drugs of Abuse System after adding a known quantity (200 ng/mL) of the barbiturate test compound to drug-free normal human urine.
as §6

[4] = tested on: antibodies raised against an immunogen having the structure shown in FIG. 29; assay: Fluorescence polarization immunoassay cross-reactivity, tracer of FIG. 31; format: binding, sheep; details: tracer FIG. 31
Description: as §1

CCCC(C)C1(CC(=O)NCc2c(O)ccc3c2Oc2cc(O)ccc2C32OC(=O)c3ccccc32)C(=O)NC(=O)NC1=O (centres unmarked)
Polarization (Boric Acid) ([1]; 2-8 °C, Day 0): 269.39
Polarization (Buffer) ([1]; 2-8 °C, Day 0): 247.79
Polarization (Boric Acid) ([1]; 2-8 °C, Day 1): 271.12
Polarization (Buffer) ([1]; 2-8 °C, Day 1): 238.09
Polarization (Boric Acid) ([1]; 2-8 °C, Day 7): 228.62
Polarization (Buffer) ([1]; 2-8 °C, Day 7): 168.21
Polarization (Boric Acid) ([1]; 45 °C, Day 1): 62.68
Polarization (Buffer) ([1]; 45 °C, Day 1): 48.70
Polarization (Boric Acid) ([1]; 45 °C, Day 7): > 68.68
Polarization (Buffer) ([1]; 45 °C, Day 7): > 48.70

CCC1(c2ccccc2)C(=O)NC(=O)NC1=O [Phenobarbital]
factor which overestimates or underestimates the compound assayed for ([2]; 200 ng/mL added): 1.05
percent cross reactivity ([2]; 200 ng/mL added): 105%
amount of the test compound found in the resulting human urine [2]: 210 ng/mL
factor which overestimates or underestimates the compound assayed for ([3]; 200 ng/mL added): 0.70
percent cross reactivity ([3]; 200 ng/mL added): 70%
amount of the test compound found in the resulting human urine [3]: 140 ng/mL
% CR ([3]; Conc. Added 1200 ng/mL): 62%
Conc. Found ([3]; Conc. Added 1200 ng/mL): 740 ng/mL
% CR ([4]; Conc. Added 1200 ng/mL): 107%
Conc. Found ([4]; Conc. Added 1200 ng/mL): 1280 ng/mL

O=C1NC(=O)C(c2ccccc2)(c2ccccc2)N1 [Phenytoin]
amount of the test compound found ([2]; 1 μg/mL added): ND (None detected: Concentration less than the sensitivity of the assay (60 ng/mL))
amount of the test compound found ([2]; 10 μg/mL added): 320 ng/mL
factor ([2]; 10 μg/mL added): 0.032
percent cross reactivity ([2]; 10 μg/mL added): 3.20%
amount of the test compound found ([2]; 100 μg/mL added): 1020 ng/mL
factor ([2]; 100 μg/mL added): 0.0102
percent cross reactivity ([2]; 100 μg/mL added): 1.02%
% CR ([3]; Conc. Added 100 (ng/mL)): 0.04%
Conc. Found ([3]; Conc. Added 100 (ng/mL)): 40 ng/mL
% CR ([4]; Conc. Added 100 (ng/mL)): 0.09%
Conc. Found ([4]; Conc. Added 100 (ng/mL)): 90 ng/mL

C=CCC1(C(C)CC)C(=O)NC(=O)NC1=O (centres unmarked) [Talbutal]
factor which overestimates or underestimates the compound assayed for ([2]; 200 ng/mL added): 0.90
percent cross reactivity ([2]; 200 ng/mL added): 90%
amount of the test compound found in the resulting human urine [2]: 180 ng/mL
factor which overestimates or underestimates the compound assayed for ([3]; 200 ng/mL added): 2.65
percent cross reactivity ([3]; 200 ng/mL added): 265%
amount of the test compound found in the resulting human urine [3]: 531 ng/mL
% CR ([3]; Conc. Added 1200 ng/mL): >167%
% CR ([4]; Conc. Added 1200 ng/mL): >167%

CCCC(C)C1(C/C=C/C(=O)NCc2c(O)ccc3c2Oc2cc(O)ccc2C32OC(=O)c3ccccc32)C(=O)NC(=O)NC1=O (centres unmarked) [drawing 9]
Polarization (Buffer) ([1]; 2-8 °C, Day 0): 239.63
Polarization (Buffer) ([1]; 2-8 °C, Day 1): 235.18
Polarization (Buffer) ([1]; 2-8 °C, Day 7): 235.08
Polarization (Buffer) ([1]; 45 °C, Day 1): 237.93
Polarization (Buffer) ([1]; 45 °C, Day 7): 239.72

O=C1NC(=O)C(c2ccccc2)(c2ccc(O)cc2)N1 (centres unmarked) [p-Hydroxy phenytoin]
amount of the test compound found ([2]; 1 μg/mL added): ND (None detected: Concentration less than the sensitivity of the assay (60 ng/mL))
amount of the test compound found ([2]; 10 μg/mL added): 340 ng/mL
factor ([2]; 10 μg/mL added): 0.034
percent cross reactivity ([2]; 10 μg/mL added): 3.40%
amount of the test compound found ([2]; 100 μg/mL added): 1200 ng/mL
factor ([2]; 100 μg/mL added): 0.012
percent cross reactivity ([2]; 100 μg/mL added): 1.20%
amount of the test compound found ([3]; 10 μg/mL added): ND (None detected: Concentration less than the sensitivity of the assay (60 ng/mL))
amount of the test compound found ([3]; 100 μg/mL added): 101 ng/mL
factor ([3]; 100 μg/mL added): 0.00010
percent cross reactivity ([3]; 100 μg/mL added): 0.10%
amount of the test compound found ([3]; 500 μg/mL added): 218 ng/mL
factor ([3]; 500 μg/mL added): 0.00004
percent cross reactivity ([3]; 500 μg/mL added): 0.04%
% CR ([3]; Conc. Added 500 (ng/mL)): 0.001%
Conc. Found ([3]; Conc. Added 500 (ng/mL)): 200 ng/mL
% CR ([4]; Conc. Added 500 (ng/mL)): 0.058%
Conc. Found ([4]; Conc. Added 500 (ng/mL)): 290 ng/mL

Primidone
amount of the test compound found ([2]; 1 μg/mL added): ND (None detected: Concentration less than the sensitivity of the assay (60 ng/mL))
amount of the test compound found ([2]; 10 μg/mL added): 90 ng/mL
factor ([2]; 10 μg/mL added): 0.009
percent cross reactivity ([2]; 10 μg/mL added): 0.90%
amount of the test compound found ([2]; 100 μg/mL added): 320 ng/mL
factor ([2]; 100 μg/mL added): 0.0032
percent cross reactivity ([2]; 100 μg/mL added): 0.32%
amount of the test compound found ([3]; 10 μg/mL added): ND (None detected: Concentration less than the sensitivity of the assay (60 ng/mL))
amount of the test compound found ([3]; 100 μg/mL added): 195 ng/mL
factor ([3]; 100 μg/mL added): 0.00019
percent cross reactivity ([3]; 100 μg/mL added): 0.19%
% CR ([3]; Conc. Added 100 (ng/mL)): 0.18%
Conc. Found ([3]; Conc. Added 100 (ng/mL)): 180 ng/mL
% CR ([4]; Conc. Added 100 (ng/mL)): 0.24%
Conc. Found ([4]; Conc. Added 100 (ng/mL)): 240 ng/mL
